From the supplement of paper PMC13380429

How the values were obtained:
Conditions in all cases: 72 h
Caco-2 [1] = test: cell viability relative to DMSO; higher = less toxic
Calu-3 [2] = test: as above
HepG2 [3] = test: as above
U2OS [4] = test: as above
Vero E6 [5] = test: as above
Caco-2 [6] = test: relative viability EC50 (midpoint between 100% and the lowest measured viability); higher = less toxic
Calu-3 [7] = test: as above
HepG2 [8] = test: as above
U2OS [9] = test: as above
Vero E6 [10] = test: as above
Caco-2 [11] = test: drug sensitivity score (DSS) for viability; higher = more toxic; extreme values may be limits of the assay
Calu-3 [12] = test: as above
HepG2 [13] = test: as above
U2OS [14] = test: as above
Vero E6 [15] = test: as above

| SMILES | cell viability (Caco-2 [1]; 1 nM) | cell viability (Caco-2 [1]; 10 nM) | cell viability (Caco-2 [1]; 100 nM) | cell viability (Caco-2 [1]; 1000 nM) | cell viability (Caco-2 [1]; 10000 nM) | cell viability (Calu-3 [2]; 1 nM) | cell viability (Calu-3 [2]; 10 nM) | cell viability (Calu-3 [2]; 100 nM) | cell viability (Calu-3 [2]; 1000 nM) | cell viability (Calu-3 [2]; 10000 nM) | cell viability (HepG2 [3]; 1 nM) | cell viability (HepG2 [3]; 10 nM) | cell viability (HepG2 [3]; 100 nM) | cell viability (HepG2 [3]; 1000 nM) | cell viability (HepG2 [3]; 10000 nM) | cell viability (U2OS [4]; 1 nM) | cell viability (U2OS [4]; 10 nM) | cell viability (U2OS [4]; 100 nM) | cell viability (U2OS [4]; 1000 nM) | cell viability (U2OS [4]; 10000 nM) | cell viability (Vero E6 [5]; 1 nM) | cell viability (Vero E6 [5]; 10 nM) | cell viability (Vero E6 [5]; 100 nM) | cell viability (Vero E6 [5]; 1000 nM) | cell viability (Vero E6 [5]; 10000 nM) | relative viability EC50 (Caco-2 [6]) | relative viability EC50 (Calu-3 [7]) | relative viability EC50 (HepG2 [8]) | relative viability EC50 (U2OS [9]) | relative viability EC50 (Vero E6 [10]) | drug sensitivity score (Caco-2 [11]) | drug sensitivity score (Calu-3 [12]) | drug sensitivity score (HepG2 [13]) | drug sensitivity score (U2OS [14]) | drug sensitivity score (Vero E6 [15]) |
| --- | --- | --- | --- | --- | --- | --- | --- | --- | --- | --- | --- | --- | --- | --- | --- | --- | --- | --- | --- | --- | --- | --- | --- | --- | --- | --- | --- | --- | --- | --- | --- | --- | --- | --- | --- |
| Nc1n[nH]c2nnc(-c3c(-c4ccccc4)nn4ccccc34)cc12 | 95.7% | 107% | 90.4% | 97.1% | 84.3% | 98.9% | 102% | 99.8% | 90% | 95% | 102% | 95.2% | 103% | 97.9% | 91.8% | 98.2% | 102% | 94.9% | 102% | 89.1% | 105% | 93.6% | 97% | 94.8% | 84.5% | > 10 µM | > 10 µM | > 10 µM | > 10 µM | > 10 µM | 0.2 | 0 | 0 | 0 | 0.2 |
| COc1ccc(-c2ccc3c(N4CCOC[C@@H]4C)nc(N4CCOC[C@@H]4C)nc3n2)cc1CO [AZD8055] | 94.3% | 88.2% | 54% | 34.6% | 28.2% | 101% | 83.7% | 37.6% | 26.4% | 27.2% | 99.4% | 90.8% | 54.7% | 27.1% | 18.9% | 99% | 102% | 57.5% | 22.8% | 16.1% | 96.9% | 89.7% | 69.9% | 40.1% | 30.3% | 0.0545 µM | 0.0265 µM | 0.0808 µM | 0.101 µM | 0.123 µM | 18.8 | 23 | 19.7 | 20 | 15 |
| CCCCC(=O)O[C@]1(C(=O)CO)[C@@H](C)C[C@H]2[C@@H]3CCC4=CC(=O)C=C[C@]4(C)[C@@]3(F)[C@@H](O)C[C@@]21C [BETAMETHASONE VALERATE] | 103% | 86.2% | 113% | 110% | 96.1% | 105% | 101% | 95.2% | 93.7% | 117% | 107% | 114% | 90% | 107% | 76.4% | 95.8% | 96.2% | 95% | 94.8% | 92.4% | 105% | 102% | 95.4% | 91.1% | 95.6% | > 10 µM | > 10 µM | > 10 µM | > 10 µM | > 10 µM | 0 | 0 | 0.6 | 0 | 0 |
| CC(C)(C)NCC(O)COc1cccc2c1CCC(=O)N2 (stereo not given) [carteolol] | 100% | 96.1% | 95.8% | 98.1% | 95.7% | 94.8% | 109% | 104% | 92.9% | 104% | 101% | 87.8% | 100% | 101% | 105% | 98.5% | 101% | 95.9% | 97.2% | 93.9% | 96.3% | 95.9% | 98.4% | 99% | 98.3% | > 10 µM | > 10 µM | > 10 µM | > 10 µM | > 10 µM | 0 | 0 | 0 | 0 | 0 |
| C[C@]12C/C(=C/O)C(=O)C[C@@H]1CC[C@@H]1[C@@H]2CC[C@@]2(C)[C@H]1CC[C@]2(C)O [Oxymetholone] | 100% | 87.8% | 102% | 90.4% | 96.1% | 117% | 97.6% | 97.3% | 102% | 101% | 101% | 108% | 96% | 111% | 96% | 102% | 97.8% | 99.6% | 97% | 98.1% | 97.4% | 101% | 106% | 104% | 96.3% | > 10 µM | > 10 µM | > 10 µM | > 10 µM | > 10 µM | 0 | 0 | 0 | 0 | 0 |
| COc1c(Nc2ccc(S(C)(=O)=O)nc2C)ncnc1OC1CCN(C(=O)OC(C)C)CC1 [APD597] | 96.5% | 96.2% | 103% | 93.4% | 90.2% | 106% | 105% | 106% | 109% | 98.7% | 99.6% | 104% | 94.4% | 94.6% | 86.3% | 99.5% | 99.1% | 99.6% | 99.7% | 100% | 106% | 98.2% | 97% | 100% | 95.5% | > 10 µM | > 10 µM | > 10 µM | > 10 µM | > 10 µM | 0 | 0 | 0.1 | 0 | 0 |
| CC(C)(C)CC(C)(C)c1ccc(O)c(Cc2ccc(Cl)cc2Cl)c1 [clofoctol] | 94.6% | 102% | 99.7% | 99.8% | 93.8% | 91.2% | 96.5% | 92.4% | 90.9% | 98.5% | 109% | 98% | 113% | 96.2% | 98.5% | 99.4% | 103% | 102% | 103% | 96.9% | 107% | 101% | 102% | 99.8% | 102% | > 10 µM | > 10 µM | > 10 µM | > 10 µM | > 10 µM | 0 | 0 | 0 | 0 | 0 |
| COc1cc(C)c(/C=C/C(C)=C/C=C/C(C)=C/C(=O)O)c(C)c1C [acitretin] | 89.3% | 93.2% | 99.3% | 89.4% | 91.4% | 97.5% | 94.8% | 83.9% | 83.5% | 75.3% | 101% | 96.7% | 98.7% | 106% | 105% | 100% | 101% | 94.4% | 93.7% | 92.1% | 103% | 99.6% | 99.6% | 99.3% | 102% | > 10 µM | > 10 µM | > 10 µM | > 10 µM | > 10 µM | 0 | 3.8 | 0 | 0 | 0 |
| Cc1cc(Cn2cnc3c2C[C@@H](C(=O)O)N(C(=O)C(c2ccccc2)c2ccccc2)C3)ccc1N(C)C | 91.4% | 97.9% | 94.1% | 108% | 110% | 87.3% | 106% | 103% | 98.1% | 114% | 101% | 90.7% | 105% | 99.9% | 110% | 93.3% | 102% | 96% | 103% | 107% | 96.5% | 90.4% | 99.3% | 96.5% | 103% | > 10 µM | > 10 µM | > 10 µM | > 10 µM | > 10 µM | 0 | 0 | 0 | 0 | 0 |
| Cc1nc(Nc2n[nH]c3c2CN(C(=O)N[C@H](CN(C)C)c2ccccc2)C3(C)C)c2sccc2n1 | 98.9% | 97.9% | 70.6% | 68.8% | 45.9% | 92.2% | 89.9% | 82% | 61.7% | 25.2% | 89% | 72.6% | 38.4% | 26.6% | 10.3% | 100% | 88.6% | 54.5% | 35% | 0.8% | 97.9% | 99.9% | 93.7% | 64.4% | 46.6% | 0.203 µM | 0.571 µM | 0.0349 µM | 0.192 µM | 0.552 µM | 9.5 | 10.1 | 24.9 | 19 | 7.4 |
| Cc1cccc(Oc2cnc(=O)[nH]c2)c1 [tolimidone] | 111% | 95.7% | 94.8% | 95.9% | 102% | 108% | 93.8% | 92.2% | 99.7% | 95.8% | 111% | 95.4% | 80.8% | 94.1% | 98% | 103% | 98.4% | 103% | 99.9% | 104% | 108% | 95.4% | 90.3% | 95.7% | 91.2% | > 10 µM | > 10 µM | > 10 µM | > 10 µM | > 10 µM | 0 | 0 | 0 | 0 | 0 |
| O=C(Oc1ccc([N+](=O)[O-])cc1)N1CCC(C(O)(c2ccc3c(c2)OCO3)c2ccc3c(c2)OCO3)CC1 [JZL-184] | 104% | 98.5% | 100% | 91.5% | 104% | 105% | 115% | 100% | 91.2% | 117% | 109% | 114% | 90.5% | 116% | 97.9% | 94.9% | 100% | 98% | 96.2% | 97.9% | 106% | 97.2% | 91.9% | 96.4% | 91% | > 10 µM | > 10 µM | > 10 µM | > 10 µM | > 10 µM | 0 | 0 | 0 | 0 | 0 |
| CNC(=O)c1ccccc1Nc1nc(Nc2ccc(N3CCOCC3)cc2OC)ncc1Cl [NVP-TAE226] | 96% | 104% | 88.3% | 54.1% | 44.2% | 93.1% | 90.8% | 86.2% | 74.5% | 41.9% | 114% | 99.6% | 91.3% | 33.1% | 20.8% | 99.9% | 100% | 94.1% | 69% | 22% | 99.6% | 97.7% | 96.3% | 66.7% | 48.4% | 0.295 µM | 0.706 µM | 0.356 µM | 1.26 µM | 0.645 µM | 9.8 | 6.9 | 13.5 | 7.9 | 6.8 |
